From patent US9688642B2, “Substituted pyrazines as GPR40 agonists” (Janssen Pharmaceutica NV, priority 2014, dated 2017) come the findings set out here.

Several values for one entry are separate records, joined by “and”; a condition that tells them apart may be missing. Equal entries are not always repeated.

For one assay, the target named is rat GPR40 (Rattus norvegicus (Rat), UniProt Q8K3T4). As to the kind of experiment: GPR40 calcium flux assay, HEK293 cells stably expressing rat GPR40. Format: cell-based. Particulars: transfected HEK293 cells stably expressing rat GPR40; individual determinations listed; read-out: rGPR40 Ca2+ Assay EC50. The procedure: (§1) Compounds were tested in a calcium flux assay using transfected HEK293 cells stably expressing either human GPR40 or rat GPR40. Human GPR40 expressing cells were cultured in DMEM-High Glucose media supplemented with 10% fetal bovine serum, 1×L-Glutamine, 1× Penicillin/Streptomycin and 500 μg/mL G418. Rat GPR40 expressing cells were cultured in DMEM-High Glucose media supplemented with 10% fetal bovine serum and 1 μg/mL puromycin. Cells were plated into poly-D-lysine coated 384-well plates and cultured overnight in a 37° C. humidified tissue culture incubator under 5% CO2/90% O2 atmosphere. On the day of the experiment, the culture media was replaced with assay buffer (HBSS, 20 mM HEPES, 0.1% BSA) and the cells incubated at 37° C. for 1 h. Calcium-sensitive fluorescent dye (Fluo 8 No-Wash Calcium Dye, ABD Bioquest) was then added and the cells incubated for another 30 min at 37° C. followed by 15 min at room temperature while protected from the light. The cell plate and a plate of diluted compounds of Formula (I) were loaded into a fluorescent plate reader that added compounds onto the cells while measuring the fluorescence intensity of each well. The plate reader recorded fluorescence intensity at 1 second intervals for 8 min and provided the data for analysis in an Excel format. EC50 values were calculated using Prism (GraphPad) software.

In a further assay the target is human GPR40 (Homo sapiens (Human), UniProt O14842). Description: GPR40 calcium flux assay, HEK293 cells stably expressing human GPR40. Format: cell-based. Particulars: transfected HEK293 cells stably expressing human GPR40; individual determinations listed; read-out: hGPR40 Ca2+ Assay EC50. The method, then: as §1
A further assay deals with Male SD rats. As to the kind of experiment: Oral glucose tolerance test. Type of assay: in vivo, rat. Particulars: dosed 30 min prior to oGTT (glucose 2 g/kg po), blood glucose AUC t=0 to t=120 minutes vs vehicle. The method, then: Male SD rats (200-250 g) were housed 2 per cage in a temperature-controlled room with a 12-hour light/dark cycle. They were allowed ad libitum access to water and fed with normal rodent chow. The night before the oral glucose tolerance test (oGTT), the rats were transferred to clean cages and fasted overnight. On the morning of the oGTT, the rats were weighed and randomized into groups based on fasted blood glucose and body weight. Rats were dosed with vehicle (0.5% methocel) or compounds thirty min prior to the oGTT (glucose, 2 g/kg, po). Blood was collected from the tail vein at 0, 10, 30, 60 and 120 minutes after glucose challenge to measure blood glucose; plasma was used to determine insulin levels.

Sequence of rat GPR40 (Q8K3T4 whole entry): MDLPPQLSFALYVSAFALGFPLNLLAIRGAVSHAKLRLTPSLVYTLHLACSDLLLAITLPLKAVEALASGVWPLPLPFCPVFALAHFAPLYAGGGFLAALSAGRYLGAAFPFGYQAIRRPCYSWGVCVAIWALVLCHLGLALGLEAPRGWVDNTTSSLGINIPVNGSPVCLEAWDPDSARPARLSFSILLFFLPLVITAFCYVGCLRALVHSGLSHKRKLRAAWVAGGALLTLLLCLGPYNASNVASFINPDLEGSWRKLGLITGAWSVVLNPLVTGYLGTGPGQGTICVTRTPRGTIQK
Sequence of human GPR40 (O14842 whole entry): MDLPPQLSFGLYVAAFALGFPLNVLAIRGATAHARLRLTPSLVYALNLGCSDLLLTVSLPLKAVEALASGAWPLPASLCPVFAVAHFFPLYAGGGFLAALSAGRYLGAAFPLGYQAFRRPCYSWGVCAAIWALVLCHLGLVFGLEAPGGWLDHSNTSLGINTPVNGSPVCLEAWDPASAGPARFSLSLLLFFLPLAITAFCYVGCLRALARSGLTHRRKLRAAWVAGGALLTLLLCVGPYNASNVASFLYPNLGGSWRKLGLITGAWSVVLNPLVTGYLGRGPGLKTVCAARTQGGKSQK

Usually EC50 stands for the concentration needed to bring the measured effect to its halfway point. Turning to `COc1cc(-c2ncc(COc3cccc([C@@H](CC(=O)O)C4CC4)c3)nc2CC(C)C)c(F)cn1` [Cpd 2, (3S)-3-cyclopropyl-3-[3-[[5-(5-fluoro-2-methoxy-4-pyridyl)-6-isobutyl-pyrazin-2-yl]methoxy]phenyl]propanoic acid], the EC50 is 7 nM (2×) and 8 nM and 12 nM at rat GPR40; 2 nM (2×) and 1 nM and 3 nM at human GPR40. Further, the “Percent Lowering of Glucose (AUC compound vs. AUC Vehicle)” value (“Percent Lowering of Glucose” for short) in the assay with Male SD rats was determined as 87%.
Turning to `COc1ccc(F)c(-c2ncc(COc3cccc([C@@H](CC(=O)O)C4CC4)c3)nc2C=C(C)C)c1` [Cpd 8, (3S)-3-cyclopropyl-3-[3-[[5-(2-fluoro-5-methoxy-phenyl)-6-(2-methylprop-1-enyl)pyrazin-2-yl]methoxy]phenyl]propanoic acid], the EC50 on rat GPR40 is 39 nM and 29 nM and 76 nM and 50 nM; on human GPR40, 10 nM and 9 nM and 14 nM and 8 nM and 6 nM. For the same compound, the “Percent Lowering of Glucose” value with Male SD rats turned out to be 91%.
Take `COc1ccc(F)c(-c2ncc(COc3cccc([C@@H](CC(=O)O)C4CC4)c3)nc2OC2CCCC2)c1` [Cpd 13, (3S)-3-[3-[[6-(cyclopentoxy)-5-(2-fluoro-5-methoxy-phenyl)pyrazin-2-yl]methoxy]phenyl]-3-cyclopropyl-propanoic acid]: the EC50 was 31 nM and 30 nM (2×) and 53 nM and 33 nM at rat GPR40; 19 nM (2×) and 20 nM and 10 nM and 8 nM on human GPR40. In addition, in the assay with Male SD rats, the “Percent Lowering of Glucose” value is 84%.
`COc1ccc(F)c(-c2ncc(COc3cccc([C@@H](CC(=O)O)C4CC4)c3)nc2C2=CCCC2(C)C)c1` [Cpd 30, (3S)-3-cyclopropyl-3-[3-[[6-(5,5-dimethylcyclopenten-1-yl)-5-(2-fluoro-5-methoxy-phenyl)pyrazin-2-yl]methoxy]phenyl]propanoic acid]: the “Percent Lowering of Glucose” value in the assay with Male SD rats stood at 87%.
